Values quoted from earlier work in US9120722B1, “Optically active valine complex and a method for producing the same” (Wellman Biosciences Co. Ltd., priority 2014, dated 2015).

Settings: for Solubility in water of the sulfonic acid salt with L-valine: salts with L-valine, prior art U.S. Pat. No. 5,689,001 and No. 6,072,083

Row | Solubility in water of the sulfonic acid salt with L-valine | Solubility (aqueous solution) (room temperature, stated as known) | Structure (SMILES)
1 | 7.8% | – | CC(C)c1ccc(S(=O)(=O)O)cc1 [p-isopropylbenzene sulfonic acid]
2 | – | 8-10% | CC(C)[C@@H](N)C(=O)O [D-valine]
3 | 14.5% | – | CCc1ccc(S(=O)(=O)O)cc1 [p-ethylbenzene sulfonic acid]
